Source: PMC5288202, “Simultaneous inhibition of Vps34 kinase would enhance PI3Kδ inhibitor cytotoxicity in the B-cell malignancies” (Oncotarget, 2016)
Read-outs that look alike come from different tables or passages of the source.

Key:
Format in all cases: cell-based
CMK = assay: Anti-proliferative effect; conditions: Homo sapiens, read-out: GI50 CMK
SKM-1 = assay: Anti-proliferative effect; conditions: Homo sapiens, SKM-1; AML(FLT3wt); read-out: GI50 SKM-1
OCI-AML-2 [1] = assay: Anti-proliferative effect; conditions: Homo sapiens, OCI-AML2; AML(FLT3wt); read-out: GI50 OCI-AML-2
Hs 505T = assay: Anti-proliferative effect; conditions: Homo sapiens; CLL; read-out: GI50 Hs 505T
HT = assay: Anti-proliferative effect; conditions: Homo sapiens, B-cell lymphoma, read-out: GI50 HT
HL-60 = assay: Anti-proliferative effect; conditions: Homo sapiens, HL-60; AML (FLT3 wt); read-out: GI50 HL-60
MV4-11 [2] = assay: Anti-proliferative effect; conditions: Homo sapiens, MV4-11; AML (FLT3-ITD)
Namalwa [3] = assay: Anti-proliferative effect; conditions: Burrkit lymphoma; read-out: GI50 Namalwa
NOMO-1 = assay: Anti-proliferative effect; conditions: Homo sapiens, NOMO-1; AML (FLT3wt); read-out: GI50 NOMO-1
pERK in MEC-2 cells = assay: pERK immunoblotting
Source text: The following antibodies were purchased from Cell Signaling Technology: Akt(#4691), Phospho-Akt(Thr308)(#4056), Phospho-Akt(Ser473)(#4060), GAPDH, GSK-3β(#9315), Phospho-GSK-3β(#9323), FoxO1(#2880), Phospho-FoxO1 (Thr24)/FoxO3a(Thr32)/FoxO4(Thr28)(#2599), PRAS40(#2691), Phospho-PRAS40 (Thr246)(#2997), 4E-BP1(#9644), p70 S6K(#2708), Phospho-p70 S6K (Thr389)(#9234). SQSTM1/p62 (D5E2)(#8025), LC3B(#12513). PARP(#9532), Caspase-3(#9665), Phospho-p44/42 MAPK (Erk1/2) (Thr202/Tyr204)(#4377), p44/42 MAPK (Erk1/2) (#4695), Phospho-NF-ΚB P65 (Ser 536)(#3033), NF-ΚB P65(#4764). Lysophosphatidic Acid (#sc-201053, Santa Cruz), Recombinant Human PDGF-BB (#220-BB, R&D), Recombinant Human C5a (Peprotech, #300-70), goat anti-IgM (#5C07615, Meridian). LC3B antibody (#3868, CST). Tubulin antibody (#8035, Santa Cruz). EEA1 antibody (#610456, BD Bioscience) and LAMP1 antibody (#24170, Abcam). Secondary antibodies, Alexa488-anti-mouse, Alexa594-anti-rabbit and Prolong gold mounting medium with DAPI were purchased from Invitrogen.

MOLM-14 = assay: Anti-proliferative effect; conditions: Homo sapiens, MOLM-14; AML (FLT3-ITD)
HEL = assay: Anti-proliferative effect; conditions: Homo sapiens, AML(FLT3wt), read-out: GI50 HEL
Ramos = assay: Anti-proliferative effect; conditions: Homo sapiens, Burrkit lymphoma, read-out: GI50 Ramos
MEC-2 [4] = assay: Anti-proliferative effect
U937 = assay: Anti-proliferative effect; conditions: Homo sapiens, U-937; AML(FLT3wt); read-out: GI50 U937
MOLM-13 = assay: Anti-proliferative effect; conditions: Homo sapiens, AML(FLT3-ITD)
NB4 = assay: Anti-proliferative effect; conditions: Homo sapiens; AML-3 (FLT3wt); read-out: GI50 NB4
MEC-1 = assay: Anti-proliferative effect; conditions: Homo sapiens, MEC1; CLL
OCI-AML-3 = assay: Anti-proliferative effect; conditions: Homo sapiens, AML(FLT3wt)
[5] = test system: LAMP1 localization in HeLa cells; assay: Immunofluorescence of LAMP1 localization
Protocol: (§1) HeLa cells were treated with different concentrations of inhibitors for 16 hours. For all immunofluorescence experiments, cells were fixed in -20 °C methanol for 5 minutes or 3.7% (v/v) formaldehyde in phosphate-buffered saline (PBS) for 20 minutes. For LC3B staining, cells were fixed in -20 °C methanol. For EEA1 and LAMP1 staining, cells were fixed in PBS+ formaldehyde. Cells were then permeabilized with TBSTx (0.1% Triton X-100), blocked in AbDil (TBSTx + 2% BSA + 0.1% NaN3), and probed with primary and secondary antibodies diluted in AbDil. Cells were rinsed thoroughly with TBSTx and mounted by anti-fade prolong Gold with DAPI. Images were taken using a Leica DMI4000B fluorescent microscope. All experiments were repeated at least three times). […] Cells were lysed in lysis buffer. P62, LC3B, and GAPDH antibodies were used for immunoblotting.

Namalwa [6] = assay: Drug combination study (CellTiter-Glo, 72 hours); conditions: VPS34-IN-1 3.3 μM, normalized to DMSO, read-out: Relative activity(%) (Namalwa)
Protocol: (§2) A combination of the PI3K kinase inhibitor CAL101 with the VPS34 inhibitor VPS34-IN-1, was used to treat the cell lines. Cell proliferation were determined after treatment with the compounds for 72 hours. Cell viability was measured using the CellTiter–Glo assay (Promega, USA), data were normalized to control groups (DMSO) and represented by the mean of three independent measurements with a standard error <20%.

OCI-AML-2 [7] = assay: Drug combination study (CellTiter-Glo, 72 hours); conditions: Homo sapiens, OCI-AML2, VPS34-IN-1 1.1 μM, normalized to DMSO, read-out: Relative activity(%) (OCI-AML-2)
Protocol: as §2

MV4-11 [8] = assay: Drug combination study (CellTiter-Glo, 72 hours); conditions: Homo sapiens, VPS34-IN-1 3.3 μM, normalized to DMSO, read-out: Relative activity(%) (MV4-11)
Protocol: as §2

MEC-2 [9] = assay: Drug combination study (CellTiter-Glo, 72 hours); conditions: MEC2, 72 h, read-out: Relative activity(%) (MEC-2)
Protocol: as §2

[10] = test system: LC3B puncta in HeLa cells; assay: Immunofluorescence of LC3B puncta; conditions: 16 hours
Protocol: as §1

Row | SMILES | GI50 (CMK; AML(FLT3wt)) [µM] | GI50 (SKM-1) [µM] | GI50 (OCI-AML-2 [1]) [µM] | GI50 (Hs 505T) [µM] | GI50 (HT) [µM] | GI50 (HL-60) [µM] | GI50 (MV4-11 [2]) [µM] | GI50 (Namalwa [3]) [µM] | GI50 (NOMO-1) [µM] | effect on pERK (pERK in MEC-2 cells) | GI50 (MOLM-14) [µM] | GI50 (HEL) [µM] | GI50 (Ramos) [µM] | GI50 (U937) [µM] | GI50 (MOLM-13) [µM] | GI50 (NB4) [µM] | GI50 (MEC-1) [µM] | GI50 (OCI-AML-3) [µM] | other results
1 | CC[C@H](Nc1ncnc2[nH]cnc12)c1nc2cccc(F)c2c(=O)n1-c1ccccc1 [CAL-101] | > 10 | > 10 | > 10 | > 10 | > 10 | > 10 | > 10 | > 10 | > 10 | significantly inhibited | 7.8 | > 10 | > 10 | > 10 | > 10 | > 10 | > 10 | 2.4 | GI50 (MEC-2 [4]; MEC2, CLL, read-out: GI50 MEC-2): > 10 µM
2 | CS(=O)(=O)N1CCN(Cc2cc3nc(-c4cccc5[nH]ncc45)nc(N4CCOCC4)c3s2)CC1 [GDC-0941] | 0.3 | 0.3 | 2 | – | 0.5 | 0.16 | 1.4 | 0.39 | 1 | significantly inhibited | 0.3 | > 10 | 2.1 | 1.6 | 0.15 | 1 | – | 0.73 | –
3 | CC(C)(O)CNc1ncc(-c2ccnc(Nc3ccnc(Cl)c3)n2)c(CC2CC2)n1 [VPS34-IN-1] | – | 6.4 | 6.6 | 3 | 1.4 | 0.51 | 2.4 | 8.1 | 1.8 | – | 7.8 | 1.7 | 3.3 | 2.1 | 0.7 | 6.4 | 3.7 | 3.6 | GI50 (CMK): 5.9 µM; Effect on lysosome marker LAMP1 localization [5]: affected; activity at 3.3 µM (Namalwa [6]): 77.8%; activity at 1.1 µM (OCI-AML-2 [7]): 82.8%; activity at 3.3 µM (MV4-11 [8]): 43.6%; activity at 10 µM (MEC-2 [9]): 30.4%; GI50 (MEC-2 [4]; MEC2, read-out: GI50 MEC-2): 3.1 µM; Effect on LC3B puncta [10]: increased LC3B puncta
